Reference: ChEMBL document CHEMBL5050844 (2019)

Key:
[1] = molecular target: T1, E3 ubiquitin-protein ligase CBL-B (Homo sapiens, UniProt Q13191); assay: Inhibition of N-terminal Avi-tagged human CBL-B (36 to 427 residues) incubated with 60 nM Src kinase for 1.5 hrs followed by incubation with fluorescently labeled UbcH5B-Ub for 1 hr and measured by TR-FRET assay; format: single protein
[2] = molecular target: T1, E3 ubiquitin-protein ligase CBL-B; assay: Binding affinity towards N-terminal biotinylated Avi-tagged human CBL-B (36 to 427 residues) measured by surface plasmon resonance assay
[3] = Induction of anti-CD3/CD28 antibodies-stimulated human T cell activation at 4 uM assessed fold increase in IL-2 secretion measured by ELISA assay; format: functional, T cell line
[4] = Induction of anti-CD3/CD28 antibodies-stimulated human T cell activation at 1 uM assessed fold increase in IL-2 secretion measured by ELISA assay; format: functional, T cell line
[5] = Induction of anti-CD3/CD28 antibodies-stimulated human T cell activation at 0.3 uM assessed fold increase in IL-2 secretion measured by ELISA assay; format: functional, T cell line
[6] = Induction of anti-CD3 antibodies-stimulated human T cell activation at 8 uM assessed fold increase in IL-2 secretion measured by ELISA assay; format: functional, T cell line
[7] = Induction of anti-CD3 antibodies-stimulated human T cell activation at 1 uM assessed fold increase in IL-2 secretion measured by ELISA assay; format: functional, T cell line
[8] = Induction of anti-CD3/CD28 antibodies-stimulated human T cell activation at 4 uM assessed fold increase in CD25 expression measured by ELISA assay; format: functional, T cell line
[9] = Induction of anti-CD3/CD28 antibodies-stimulated human T cell activation at 1 uM assessed fold increase in CD25 expression measured by ELISA assay; format: functional, T cell line
[10] = Induction of anti-CD3/CD28 antibodies-stimulated human T cell activation at 0.3 uM assessed fold increase in CD25 expression measured by ELISA assay; format: functional, T cell line
[11] = Induction of anti-CD3 antibodies-stimulated human T cell activation at 8 uM assessed fold increase in CD25 expression measured by ELISA assay; format: functional, T cell line
[12] = Induction of anti-CD3 antibodies-stimulated human T cell activation at 1 uM assessed fold increase in CD25 expression measured by ELISA assay; format: functional, T cell line

T1 sequence (Q13191 whole entry, the tested form may be a part): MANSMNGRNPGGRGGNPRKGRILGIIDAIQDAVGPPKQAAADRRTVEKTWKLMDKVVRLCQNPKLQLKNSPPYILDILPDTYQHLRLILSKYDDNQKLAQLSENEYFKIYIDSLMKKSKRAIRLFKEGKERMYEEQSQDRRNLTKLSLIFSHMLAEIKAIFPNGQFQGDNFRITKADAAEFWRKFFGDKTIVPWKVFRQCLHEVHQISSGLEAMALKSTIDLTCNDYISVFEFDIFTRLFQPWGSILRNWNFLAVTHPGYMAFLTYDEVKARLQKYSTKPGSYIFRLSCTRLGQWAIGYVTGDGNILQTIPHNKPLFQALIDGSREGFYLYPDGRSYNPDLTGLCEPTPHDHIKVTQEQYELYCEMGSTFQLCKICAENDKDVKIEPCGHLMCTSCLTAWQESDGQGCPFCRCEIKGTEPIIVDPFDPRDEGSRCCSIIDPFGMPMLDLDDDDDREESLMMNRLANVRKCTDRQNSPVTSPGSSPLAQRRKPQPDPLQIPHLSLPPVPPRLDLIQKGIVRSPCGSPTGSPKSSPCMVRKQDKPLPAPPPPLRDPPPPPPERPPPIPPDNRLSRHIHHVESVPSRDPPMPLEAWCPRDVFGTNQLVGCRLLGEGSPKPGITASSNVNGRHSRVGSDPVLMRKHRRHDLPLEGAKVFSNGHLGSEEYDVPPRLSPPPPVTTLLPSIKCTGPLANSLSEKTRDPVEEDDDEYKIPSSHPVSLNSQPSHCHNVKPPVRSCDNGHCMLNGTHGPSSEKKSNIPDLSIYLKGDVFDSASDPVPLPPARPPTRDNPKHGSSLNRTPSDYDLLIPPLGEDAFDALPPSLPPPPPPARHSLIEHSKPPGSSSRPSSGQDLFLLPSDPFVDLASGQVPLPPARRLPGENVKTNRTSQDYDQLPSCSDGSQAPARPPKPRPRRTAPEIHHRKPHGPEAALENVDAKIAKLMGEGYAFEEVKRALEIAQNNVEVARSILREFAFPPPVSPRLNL

SMILES	IC50 [1]	Kd [2]	fold change (FC) [3]	fold change (FC) [4]	fold change (FC) [5]	fold change (FC) [6]	fold change (FC) [7]	fold change (FC) [8]	fold change (FC) [9]	fold change (FC) [10]	fold change (FC) [11]	fold change (FC) [12]
C[C@H](Cc1nncn1C)c1cccc(N2Cc3c(cc(C(=O)N4C[C@@H](O)C[C@H]4C)cc3C(F)(F)F)C2=O)c1.O=C(O)C(F)(F)F	< 100 nM	< 100 nM	>=7.5	5	2.51	>=0.201	>=0.201	>=1.76	1.51	1.31	>=1.001	0.801
C[C@H](CC1=NN=CC1C(F)(F)F)c1cccc(N2Cc3c(cc(C(=O)N4CC[C@H](O)C4)cc3C(F)(F)F)C2=O)c1 (stereo partly drawn)	< 100 nM	< 100 nM	2.51	1.01	1.01	0.151	0.051	1.01	1.01	1.01	>=1.001	0.801
C[C@H](Cc1nncn1C)c1cccc(NC(=O)c2ccc(CO)c(C3CC3)n2)c1	< 100 nM	< 100 nM	>=7.5	>=7.5	>=7.5	>=0.201	>=0.201	1.51	1.51	1.31	>=1.001	>=1.001
CCOc1cc([C@H](C)Cc2nncn2C)cc(N2Cc3c(cccc3C(F)(F)F)C2=O)n1	< 100 nM	< 100 nM	>=7.5	5	2.51	>=0.201	0.151	1.31	1.31	1.01	>=1.001	>=1.001
C[C@H](Cc1nncn1C)c1cccc(N2Cc3c(cc(C(=O)N4CC[C@H](O)C4)cc3C(F)(F)F)C2=O)c1	< 100 nM	< 100 nM	>=7.5	2.51	1.01	>=0.201	0.151	1.31	1.01	1.01	>=1.001	0.801
CC(c1cc2c(c(C(F)(F)F)c1)CN(c1cccc([C@H](C)Cc3nncn3C)c1)C2=O)N1CC[C@H](O)C1 (stereo partly drawn)	< 100 nM	< 100 nM	>=7.5	>=7.5	2.51	>=0.201	0.151	1.51	1.31	1.31	>=1.001	>=1.001
C[C@H](Cc1nncn1C)c1cccc(N2Cc3c(cc(N[C@H]4CCNC4)cc3C(F)(F)F)C2=O)c1	< 100 nM	< 100 nM	2.51	2.51	1.01	0.151	0.101	1.01	1.01	1.01	>=1.001	0.801
Cc1conc1C[C@@H](C)c1cccc(N2Cc3c(cc(C(=O)N4CC[C@H](O)C4)cc3C(F)(F)F)C2=O)c1	< 100 nM	< 100 nM	>=7.5	5	2.51	>=0.201	0.101	1.01	1.01	1.01	>=1.001	>=1.001
Cc1c[nH]nc1-c1cc2c(c(C(F)(F)F)c1)CN(c1cccc([C@H](C)Cc3nncn3C)c1)C2=O	< 100 nM	< 100 nM	>=7.5	5	1.01	>=0.201	>=0.201	>=1.76	1.51	1.31	0.801	0.601
C[C@H](Cc1nncn1C)c1cccc(NC(=O)c2cc(C3CC3)nc(C3CC3)n2)c1	< 100 nM	< 100 nM	>=7.5	5	2.51	>=0.201	>=0.201	1.51	1.51	1.01	>=1.001	>=1.001
Cc1[nH]ncc1-c1cc2c(c(C(F)(F)F)c1)CN(c1cccc([C@H](C)Cc3nncn3C)c1)C2=O	< 100 nM	< 100 nM	>=7.5	5	2.51	>=0.201	0.151	1.51	1.51	1.31	>=1.001	0.801
CNc1cc([C@H](C)Cc2nncn2C)cc(N2Cc3c(cccc3C(F)(F)F)C2=O)n1	< 100 nM	< 100 nM	5	1.01	1.01	0.151	0.051	1.31	1.01	1.01	>=1.001	0.601
Cn1cnnc1CC1(c2cccc(N3Cc4c(cc(CN5CCC(F)(F)C5)cc4C(F)(F)F)C3=O)c2)COC1	< 100 nM	< 100 nM	>=7.5	>=7.5	2.51	>=0.201	>=0.201	1.01	1.01	1.01	>=1.001	>=1.001
C[C@H](Cc1nncn1C)c1cccc(N2Cc3c(cc(CN4CC(O)C(F)(F)C4)cc3C(F)(F)F)C2=O)c1 (stereo partly drawn)	< 100 nM	< 100 nM	>=7.5	5	2.51	>=0.201	0.101	1.31	1.31	1.01	>=1.001	>=1.001
